From US10750743B2, “Pyridazinone herbicides” (E.I. DU PONT DE NEMOURS AND COMPANY, priority 2015, dated 2020)

Legend:
Format in all cases: in vivo
[1] = system: ragweed (common ragweed, Ambrosia elatior); experiment: Test A preemergence, directed soil spray, visual injury rating; settings: 0 is no effect, 100 is complete control
Summary of the method: (§1)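 Injury ratings, 0 (no effect) to 100 (complete control), were scored visually versus untreated plants roughly 10 d after treatment under greenhouse conditions. Treatments used surfactant-containing solvent formulations, sprayed onto soil preemergence or onto one- to two-leaf seedlings (2-10 cm) postemergence, grown in a loam-sand mix.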

[2] = system: barnyardgrass (Echinochloa crus-galli); experiment: as above; settings: 0 is no effect, 100 is complete control
Summary of the method: as §1

[3] = system: pigweed (Amaranthus retroflexus); experiment: as above; settings: 0 is no effect, 100 is complete control
Summary of the method: as §1

kochia (Kochia scoparia) [4] = experiment: as above; settings: 0 is no effect, 100 is complete control
Summary of the method: as §1

[5] = system: ryegrass, It. (Italian ryegrass, Lolium multiflorum); experiment: as above; settings: 0 is no effect, 100 is complete control
Summary of the method: as §1

[6] = system: foxtail, giant (giant foxtail, Setaria faberii); experiment: as above; settings: 0 is no effect, 100 is complete control
Summary of the method: as §1

[7] = system: sedge, umbrella (small-flower umbrella sedge, Cyperus difformis); experiment: Test B flooded paddy test, visual rating; settings: Flood, 250 g ai/ha, applied to paddy water, rated after 13 to 15 d
Description: (§2) Plant species in the flooded paddy test selected from rice (Oryza sativa), sedge, umbrella (small-flower umbrella sedge, Cyperus difformis), ducksalad (Heteranthera limosa), and barnyardgrass (Echinochloa crus-galli) were grown to the 2-leaf stage for testing. At time of treatment, test pots were flooded to 3 cm above the soil surface, treated by application of test compounds directly to the paddy water, and then maintained at that water depth for the duration of the test. Treated plants and controls were maintained in a greenhouse for 13 to 15 d, after which time all species were compared to controls and visually evaluated. Plant response ratings, summarized in Table B, are based on a scale of 0 to 100 where 0 is no effect and 100 is complete control. A dash (-) response means no test result.

rice (Oryza sativa) = experiment: Test B flooded paddy test, visual rating; settings: Flood, 250 g ai/ha, applied to paddy water, rated after 13 to 15 d
Description: as §2

[8] = system: barnyardgrass (Echinochloa crus-galli); experiment: Test B flooded paddy test, visual rating; settings: Flood, 250 g ai/ha, applied to paddy water, rated after 13 to 15 d
Description: as §2

[9] = system: ducksalad (Heteranthera limosa); experiment: Test B flooded paddy test, visual rating; settings: Flood, 250 g ai/ha, applied to paddy water, rated after 13 to 15 d
Description: as §2

corn (Zea mays) = experiment: Test A postemergence application, visual injury rating; settings: 0 to 100 scale, 0 no effect, 100 complete control
Summary of the method: as §1

[10] = system: blackgrass (Alopecurus myosuroides); experiment: as above; settings: 0 to 100 scale, 0 no effect, 100 complete control
Summary of the method: as §1

[11] = system: ragweed (common ragweed, Ambrosia elatior); experiment: as above; settings: 0 to 100 scale, 0 no effect, 100 complete control
Summary of the method: as §1

[12] = system: wheat (Triticum aestivum); experiment: as above; settings: 0 to 100 scale, 0 no effect, 100 complete control
Summary of the method: as §1

[13] = system: barnyardgrass (Echinochloa crus-galli); experiment: as above; settings: 0 to 100 scale, 0 no effect, 100 complete control
Summary of the method: as §1

[14] = system: pigweed (Amaranthus retroflexus); experiment: as above; settings: 0 to 100 scale, 0 no effect, 100 complete control
Summary of the method: as §1

[15] = system: galium (catchweed bedstraw, Galium aparine); experiment: as above; settings: 0 to 100 scale, 0 no effect, 100 complete control
Summary of the method: as §1

kochia (Kochia scoparia) [16] = experiment: as above; settings: 0 to 100 scale, 0 no effect, 100 complete control
Summary of the method: as §1

[17] = system: ryegrass, It. (Italian ryegrass, Lolium multiflorum); experiment: as above; settings: 0 to 100 scale, 0 no effect, 100 complete control
Summary of the method: as §1

[18] = system: foxtail, giant (giant foxtail, Setaria faberii); experiment: as above; settings: 0 to 100 scale, 0 no effect, 100 complete control
Summary of the method: as §1

| Structure (SMILES) | Plant response rating (0 to 100 scale), Ragweed ([1]; 125 g ai/ha) | Plant response rating (0 to 100 scale), Barnyardgrass ([2]; 125 g ai/ha) | Plant response rating (0 to 100 scale), Pigweed ([3]; 125 g ai/ha) | Plant response rating (0 to 100 scale), Kochia (kochia (Kochia scoparia) [4]; 125 g ai/ha) | Plant response rating (0 to 100 scale), Ryegrass, It. ([5]; 125 g ai/ha) | Plant response rating (0 to 100 scale), Foxtail, Giant ([6]; 125 g ai/ha) | Sedge, Umbrella plant response rating (0 to 100 scale, 0 is no effect, 100 is complete control) [7] | Rice plant response rating (0 to 100 scale, 0 is no effect, 100 is complete control) (rice (Oryza sativa)) | Barnyardgrass plant response rating (0 to 100 scale, 0 is no effect, 100 is complete control) [8] | Ducksalad plant response rating (0 to 100 scale, 0 is no effect, 100 is complete control) [9] | Corn plant response rating (corn (Zea mays); 125 g ai/ha) | Blackgrass plant response rating ([10]; 125 g ai/ha) | Ragweed plant response rating ([11]; 125 g ai/ha) | Wheat plant response rating ([12]; 125 g ai/ha) | Barnyardgrass plant response rating ([13]; 125 g ai/ha) | Pigweed plant response rating ([14]; 125 g ai/ha) | Galium plant response rating ([15]; 125 g ai/ha) | Kochia plant response rating (kochia (Kochia scoparia) [16]; 125 g ai/ha) | Ryegrass, It. plant response rating ([17]; 125 g ai/ha) | Foxtail, Giant plant response rating ([18]; 125 g ai/ha) | other results |
| --- | --- | --- | --- | --- | --- | --- | --- | --- | --- | --- | --- | --- | --- | --- | --- | --- | --- | --- | --- | --- | --- |
| COC(=O)Oc1c(C)nn(C)c(=O)c1-c1c(C)ccc2cc(C)oc12 [Compound 17] | 90 | 0 | 100 | 100 | 90 | 10 | 0 | 0 | 0 | 0 | 0 | 40 | 80 | 0 | 20 | 100 | 100 | 90 | 100 | 50 | Plant response rating (0 to 100 scale), Ragweed ([1]; 31 g ai/ha): 30; Plant response rating (0 to 100 scale), Barnyardgrass ([2]; 31 g ai/ha): 0; Plant response rating (0 to 100 scale), Pigweed ([3]; 31 g ai/ha): 30; Plant response rating (0 to 100 scale), Kochia (kochia (Kochia scoparia) [4]; 31 g ai/ha): 40; Plant response rating (0 to 100 scale), Ryegrass, It. ([5]; 31 g ai/ha): 40; Plant response rating (0 to 100 scale), Foxtail, Giant ([6]; 31 g ai/ha): 0; Corn plant response rating (corn (Zea mays); 31 g ai/ha): 0; Blackgrass plant response rating ([10]; 31 g ai/ha): 10; Ragweed plant response rating ([11]; 31 g ai/ha): 70; Wheat plant response rating ([12]; 31 g ai/ha): 0; Barnyardgrass plant response rating ([13]; 31 g ai/ha): 10; Pigweed plant response rating ([14]; 31 g ai/ha): 60; Galium plant response rating ([15]; 31 g ai/ha): 80; Kochia plant response rating (kochia (Kochia scoparia) [16]; 31 g ai/ha): 70; Ryegrass, It. plant response rating ([17]; 31 g ai/ha): 50; Foxtail, Giant plant response rating ([18]; 31 g ai/ha): 20 |
| CCc1sc2ncccc2c1-c1c(O)c(C)nn(C)c1=O [Compound 18] | 0 | 0 | 0 | 0 | 0 | 0 | 0 | 0 | 0 | 0 | 0 | 0 | 0 | 0 | 0 | 0 | 0 | 0 | 0 | 0 | Plant response rating (0 to 100 scale), Ragweed ([1]; 500 g ai/ha): 0; Plant response rating (0 to 100 scale), Barnyardgrass ([2]; 500 g ai/ha): 0; Plant response rating (0 to 100 scale), Pigweed ([3]; 500 g ai/ha): 10; Plant response rating (0 to 100 scale), Kochia (kochia (Kochia scoparia) [4]; 500 g ai/ha): 0; Plant response rating (0 to 100 scale), Ryegrass, It. ([5]; 500 g ai/ha): 0; Plant response rating (0 to 100 scale), Foxtail, Giant ([6]; 500 g ai/ha): 0; Corn plant response rating (corn (Zea mays); 500 g ai/ha): 0; Blackgrass plant response rating ([10]; 500 g ai/ha): 0; Ragweed plant response rating ([11]; 500 g ai/ha): 0; Wheat plant response rating ([12]; 500 g ai/ha): 0; Barnyardgrass plant response rating ([13]; 500 g ai/ha): 0; Pigweed plant response rating ([14]; 500 g ai/ha): 30; Galium plant response rating ([15]; 500 g ai/ha): 20; Kochia plant response rating (kochia (Kochia scoparia) [16]; 500 g ai/ha): 0; Ryegrass, It. plant response rating ([17]; 500 g ai/ha): 0; Foxtail, Giant plant response rating ([18]; 500 g ai/ha): 0 |
| CCOC(=O)Oc1c(C)nn(C)c(=O)c1-c1c(CC)sc2ncccc12 [Compound 19] | 0 | 0 | 0 | 0 | 0 | 0 | 0 | 0 | 0 | 0 | 0 | 0 | 0 | 0 | 0 | 10 | 0 | 0 | 0 | 0 | Plant response rating (0 to 100 scale), Ragweed ([1]; 500 g ai/ha): 0; Plant response rating (0 to 100 scale), Barnyardgrass ([2]; 500 g ai/ha): 0; Plant response rating (0 to 100 scale), Pigweed ([3]; 500 g ai/ha): 20; Plant response rating (0 to 100 scale), Kochia (kochia (Kochia scoparia) [4]; 500 g ai/ha): 0; Plant response rating (0 to 100 scale), Ryegrass, It. ([5]; 500 g ai/ha): 0; Plant response rating (0 to 100 scale), Foxtail, Giant ([6]; 500 g ai/ha): 0; Corn plant response rating (corn (Zea mays); 500 g ai/ha): 0; Blackgrass plant response rating ([10]; 500 g ai/ha): 0; Ragweed plant response rating ([11]; 500 g ai/ha): 0; Wheat plant response rating ([12]; 500 g ai/ha): 0; Barnyardgrass plant response rating ([13]; 500 g ai/ha): 0; Pigweed plant response rating ([14]; 500 g ai/ha): 30; Galium plant response rating ([15]; 500 g ai/ha): 20; Kochia plant response rating (kochia (Kochia scoparia) [16]; 500 g ai/ha): 0; Ryegrass, It. plant response rating ([17]; 500 g ai/ha): 0; Foxtail, Giant plant response rating ([18]; 500 g ai/ha): 0 |
| CCc1sc2ncccc2c1-c1c(OC(=O)OC(C)C)c(C)nn(C)c1=O [Compound 20] | 0 | 0 | 0 | 0 | 0 | 0 | 0 | 0 | 0 | 0 | 0 | 0 | 0 | 0 | 0 | 20 | 10 | 0 | 0 | 0 | Plant response rating (0 to 100 scale), Ragweed ([1]; 500 g ai/ha): 0; Plant response rating (0 to 100 scale), Barnyardgrass ([2]; 500 g ai/ha): 0; Plant response rating (0 to 100 scale), Pigweed ([3]; 500 g ai/ha): 40; Plant response rating (0 to 100 scale), Kochia (kochia (Kochia scoparia) [4]; 500 g ai/ha): 0; Plant response rating (0 to 100 scale), Ryegrass, It. ([5]; 500 g ai/ha): 0; Plant response rating (0 to 100 scale), Foxtail, Giant ([6]; 500 g ai/ha): 0; Corn plant response rating (corn (Zea mays); 500 g ai/ha): 0; Blackgrass plant response rating ([10]; 500 g ai/ha): 0; Ragweed plant response rating ([11]; 500 g ai/ha): 0; Wheat plant response rating ([12]; 500 g ai/ha): 0; Barnyardgrass plant response rating ([13]; 500 g ai/ha): 0; Pigweed plant response rating ([14]; 500 g ai/ha): 50; Galium plant response rating ([15]; 500 g ai/ha): 40; Kochia plant response rating (kochia (Kochia scoparia) [16]; 500 g ai/ha): 0; Ryegrass, It. plant response rating ([17]; 500 g ai/ha): 0; Foxtail, Giant plant response rating ([18]; 500 g ai/ha): 0 |
